# In article PMC7933091 (2021):
# Test system: SC-34 (DNA, aptamer) ACCTTAAGTGGGGTTCGGGTGGAGTTTATGGGGT
# Assay: ITC, single-site model
# Conditions: 20 mM NaCl, 0.5 mM MgCl2; 10 mM Tris, pH 7.4, 23 °C; same value in low-salt PBS
smiles,measurement,value
CCC[C@H](C(=O)c1ccc2c(c1)OCO2)N1CCCC1,KD,~ 300 nM
